# Assays:
# Hygroscopic property = format: physicochemical
# [1] = Clinical use: kidney function; conditions: in vivo
# [2] = Clinical use: protective effect of drug administration for long periods; format: in vivo; conditions: 50mg/body/day administered with the others, long-term
# Clinical use: hepatoma = conditions: in vivo
# [3] = Clinical use: liver cirrhose; format: in vivo, patients; conditions: 100-200mg/body/day
# ascites hepatoma = assay: Direct cytocidal action of NaOGe; design: species or system rats; conditions: in words
# [4] = Acute toxicity of NaOGe in mice; format: in vivo, Mice (ICR strain); conditions: mouse, in vivo, po; per os, male
# Source text: (§1) Acute Toxicities of NaOGe according to the […]
# Mice (ICR strain) = assay: Acute toxicity of NaOGe in mice; format: in vivo; conditions: per os, female
# Source text: as §1
# [5] = Effect of NaOGe on essential hypertension in human being; format: in vivo; conditions: in words
# Experimental: Dr. A. Ishikawa, of our research group, has investigated the effect of NaOGe on essential hypertension in human being. The adminstration of 40-150 mg/body of NaOGe was divided orally in two or three doses. The duration of drug administration was at the least 1 month, at the most 12 months. The following results are obtained:
# (§2) *Numbers showing good response / total numbers
# AH44 = assay: Effect on ascites hepatoma AH44 in rats; format: in vivo, Doryu rats; conditions: 100mg/kg/day for 10 days, all control rats died
# Experimental: (§3) Dr. H. Sato, of our research group, investigated the antitumor effect of NaOGe by using several strains of ascites hepatoma in rats. For this investigation, the following […] strains of hepatoma were used: AH13, AH130, AH272, AH44, AH66F, AH7974, AH41C, AH60C and AH109A. 10^7 cells of each strain tumor were inoculated intravenously into the Doryu rats, 72 hours later, 100mg/kg/day of OGe was administered for 10 days.
# Clinical use: migrain = format: in vivo
# Clinical use: depression = format: in vivo, patients; conditions: about 100mg/body/day oral
# Source text: In moderate depression, about at the 8th day after drug administration, the improvement is observed.
# [6] = Clinical use: loss of autonomic nervous system function; format: in vivo, patients
# [7] = Effect of NaOGe on development of amyloidosis in mice; format: in vivo, ICR strain mice; conditions: in words
# Experimental: From the above results, it was presumed that OGe might act not only hypertension but some of metabolic changes related to aging. Thus, the influence of NaOGe on the development of amyloidosis in mice was tested. The ICR strain mice had been treated with oral administration of NaOGe for 22 months. After that, all mice were sacrificed and the development of amyloidosis in several important organs was investigated.
# AH66 = assay: Effect on ascites hepatoma AH66 in rats; format: in vivo, Doryu rats; conditions: 100mg/kg/day for 10 days, all control rats died
# Experimental: as §3
# [8] = Clinical use: peripheral neuritis; format: in vivo, patients; conditions: 100mg/body/day
# [9] = Clinical use: digestive system; format: in vivo
# Source text: The effect is found clearly by X-ray examination.
# [10] = Clinical use: schizophrenia; format: in vivo, patients; conditions: 200-300mg/body/day oral
# Experimental: The oral administration of 200mg/body/day ~ 300mg/body/day is necessary.
# [11] = Clinical use: effect in obstetrics; format: in vivo, patients
# Source text: The drug is particularly-effective on various symptoms including morning sickness caused by pregnance.
# [12] = Clinical use: improvement of peripheral circulation; format: in vivo, patient
# Source text: This is observed by plethysmography.
# [13] = Effect of NaOGe on Diabetes Mellitus in human being; format: in vivo; conditions: in words
# Experimental: The duration of drug administration was at the least 1 month, at the most 12 months. The following results are obtained:
# as §2
# Dr. A. Ishikawa of our research group has investigated the effect of NaOGe on Diabetes Millitus in human being. The administration of 40-150 mg/kg body of NaOGe was divided orally in two or three doses.
# [14] = Clinical use: acceleration of heart function; format: in vivo, patients
# Clinical use: epilepsy = format: in vivo, patients
# Experimental: A large amount therapy, 100-500mg/body/day in a dosis, is performed. […] In these points, the patients are humanly matured.
# infants = assay: Clinical use: infants; format: in vivo
# [15] = Clinical use: therapy of dysfunction liver (hepatitis); format: in vivo, patients
# Experimental: In patients receiving 100mg/body/day of the drug, the improvement of alkali phosphatase, SGOT, SGPT, ASAC and α-GPT and abnormal fraction of serum-protein was observed.
# [16] = Acute toxicity of NaOGe in rats; format: in vivo, Rats (Wistar strain); conditions: rat, in vivo, po; per os, male
# Source text: as §1
# Rats (Wistar strain) = assay: Acute toxicity of NaOGe in rats; format: in vivo; conditions: per os, female
# Source text: as §1
# [17] = Clinical use: general fatigue, malaise and asthenia; format: in vivo
# [18] = Clinical use: allergic diseases; format: in vivo, patients
# [19] = test system: Spontaneously Hypertensive Rats; assay: Effect of NaOGe on blood pressure of spontaneously hypertensive rats; format: in vivo, rats (SHR strain); conditions: in words
# Experimental: To investigate the effect of NaOGe on hypertension, 100mg/kg/day of sodium salt of OGe had been administered to spontaneously hypertensive rats (SHR strain) and estimated the change of blood pressure.
# [20] = cadmium chloride 2.0 mg/kg iv alone, 8th day of gestation
# [21] = 75mg/body/day, asthma bronchitis and chronic exanthema
smiles,measurement,setting,value
O=C([O-])C[CH2][Ge]([OH])([OH])[OH].[NH4+] [Ammonium 3-trihydroxygermylpropionate],hygroscopic property,Hygroscopic property,hydroscopic
[Cl][Cd][Cl] [Cadmium chloride],teratogenic action,"golden hamster; 2.0mg/kg intravenously, 8th day of gestation, in words","produces cleft palate, exencepalia, harelips and open-eye lid"
same,Living fetuses,golden hamster; [20],4.9%
same,Malformation,golden hamster; [20],25.5%
same,Resorbed embryos,golden hamster; [20],51.0%
"O=C([O-])C[CH2][Ge]([OH])([OH])[OH].[Na+] [NaOGe, Sodium 3-trihydroxygermylpropionate]",appearance of proteiureia,[1],the appearance of proteiureia is inhibited
same,diuretic effect,[1],diuretic effect is observed
same,side effects of tranquilizers and anti-tuberculosis drugs,[2],decrease of side effects
same,life span,Clinical use: hepatoma,increase of life span
same,ascites,[3],beginning of the loss of ascites
same,liver function,[3],acceleration of the recovery of liver function
same,progress of liver dysfunction,[3],stopped the progress of liver dysfunction
same,direct cytocidal action,ascites hepatoma,does not possess direct cytocidal action
same,LD50,[4],> 10000 mg/kg
same,LD50,Mice (ICR strain),over 10 g/kg
same,effect in treatment and prevention of essential hypertension,[5],effective in the treatment and the prevention of essential hypertension
same,treated rats showing a complete cure,AH44,half
same,effect on migraine,Clinical use: migrain; 75mg/body/day,effective on migraine
same,symptoms caused by brain-anemia,Clinical use: migrain; in vivo,shows the effect on the symptoms caused by brain-anemia
same,depressive status,Clinical use: depression,improvement of depressive status
same,drowsiness,Clinical use: depression,does not give any drowsiness
same,initiation of autonomy,Clinical use: depression,clearly observed after drug administration
same,effect in patients resistant to other drugs,[6]; 75mg/body/day oral,shows the effect on many patients showing resistance against any other drugs
same,objective and functional abnormality of various organs controlled by autonomic nervous system,[6]; after drug administration,are not found after drug administration
same,development of amyloidosis,[7]; 30mg/kg/day,a clear prevention of the development was observed
same,development of amyloidosis,[7]; 300mg/kg/day,completely inhibited the development of amyloidosis
same,hygroscopic property,Hygroscopic property,hydroscopic
same,treated rats showing a complete cure,AH66,half
same,effect on peripheral neuritis,[8],become to enjoy normal daily life without serious pain
same,subjective symptoms and ulcers,[9]; X-ray examination,loss of subjective symptoms and the cure of ulcers
same,effect on constipation,[9]; in vivo,effective on constipation
same,movement of stomach and intestine,[9]; in vivo,modification of movement of stomach and intestine
same,effect compared with other therapy,[9]; ulcers,higher than any other therapy
same,hullucination,[10],the disappearance of hullucination is accelerated
same,self-recognization of the disease,[10],clearly found rather early after drug administration
same,working ability,[10],The working ability is observed
same,effect in serious patients indicated for artificial pregnance stopping,[11]; 100-200mg/body/day,effective one some serious patients
same,symptoms including morning sickness,"[11]; human, in vivo",particularly-effective
same,cold exanthema,"[12]; human, in vivo",protects the appearance of cold exanthema
same,peripheral circulating blood amount,"[12]; single administration of 50 mg/body/day, plethysmography",increase of peripheral circulating blood amount
same,effect on Diabetes Mellitus,[13],effective on Diabetes Mellitus
same,blood-stream,[14]; 75-150mg/body/day,increase of blood-stream
same,ECG pattern,"[14]; 75-150mg/body/day, patients with blood-loss ECG symptom",improvement of ECG pattern
same,effect on blood-vessels,[14]; from the effect on the eye ground symptoms,stabilizing effect of blood-vessels
same,subcutaneous bleeding of legs and hands,[14]; old people,inhibited
same,EEG: epilepsy specific spike,Clinical use: epilepsy; 100-500mg/body/day oral,the loss of epilepsy specific spike is found
same,EEG: slow burst,Clinical use: epilepsy; 100-500mg/body/day oral,the inhibition of slow burst is not observed
same,drowsiness,Clinical use: epilepsy; 100-500mg/body/day oral,complete lack of drowsiness
same,grade of convulsion,Clinical use: epilepsy; 100-500mg/body/day oral,becomes lighter
same,interval of convulsion appearance,Clinical use: epilepsy; 100-500mg/body/day oral,becomes gradually longer
same,learning and working ability,Clinical use: epilepsy; 100-500mg/body/day oral,the improvement of learning -- and working -- ability is observed
same,absence of symptoms,"Clinical use: epilepsy; continued oral administration, 100-500mg/body/day",many patients did not show any symptom
same,actonic vomiting and autointoxication,infants; 20 - 50 mg/body/day,effective on actonic vomiting and autointoxication of infants
same,body weight,"infants; 100-200mg/body/day, infants showing decrease of body weight",increase
same,Malformation produced by cadmium chloride,"golden hamster; NaOGe 40.0mg/kg, simultaneous intravenous injection, in words",prevented completely
same,"alkali phosphatase, SGOT, SGPT, ASAC and α-GPT and abnormal fraction of serum-protein",[15]; 100mg/body/day,improvement
same,spontaneous cure of acute and chronic hepatitis,"[15]; human, in vivo",acceleration of the spontaneous cure
same,LD50,[16],> 10000 mg/kg
same,LD50,Rats (Wistar strain),over 10 g/kg
same,"symptoms of general fatigue, malaise and asthenia",[17]; 75mg/body/day,"loss of the symptoms of general fatigue, malaise and asthenia"
same,symptoms due to neurosis,[17]; increase of dose to 75mg/body/day,early the disappearance of the symptoms due to neurosis
same,condition 6 months to 1 year after drug administration,"[18]; 75mg/body/day, 6 months to 1 year",many patients show a condition looking like a complete cure
same,frequency of symptom-appearance,[18]; [21],decrease of the frequency of symptom-appearance
same,interval of symptom appearance,[18]; [21],becomes longer
same,use of adrenal cartex hormone,[18]; [21],decrease of adrenal cartex hormone or stop of the hormone
same,drug allergic reaction,"[18]; patients with drug allergy, given with an allergenic drug",any drug allergic reaction is not observed
"O=C(O)C[CH2][Ge]([OH])([OH])[OH] [OGe, 3-trihydroxygermylpropionic acid]",effect on hypertension in rats,[19],highly effective on hypertension in rats and the effect appears gradually

# — US4066678A (priority 1975, dated 1978)
